# Entries after “also recorded” stand apart in the source; their conditions may differ.
# Tests used:
# CCD-18Co fibroblasts = experiment: β-tubulin expression and tubulin distribution in CCD-18Co fibroblasts; assay type: cell-based, human; conditions: for tubulin distribution (tubulin tracker): 10 μM, 24 hours
# [1] = tested on: TNFα expression in Raw264.7 macrophages; experiment: PAMP induced TNFα expression in Raw264.7 macrophages; assay type: cell-based, mouse; conditions: for LPS induced TNFα expression under IGF-1R inhibition: IGF-1R inhibitor 10 μM pretreatment 30 minutes, LPS 0.1 μg/ml
# Description: (§1) To identify the anti-inflammatory mechanism of cathelicidin, human PBMCs and mouse macrophages to were exposed to PAMP signals (LPS and E. coli DNA) in the presence of cathelicidin LL-37 or mCRAMP (1-10 μM).
# [2] = tested on: human colonic CCD-18Co fibroblasts; experiment: TGF-β1 and IGF-1 induced collagen (COL1A2) expression in CCD-18Co fibroblasts; assay type: cell-based
# Text: Collagen (COL1A2) and total ERK protein expression was detected by Western blot analyses and quantitative image densitometry.
# UC disease activity = conditions: humans; Vernia et al. 2000; cited from earlier work
# [3] = tested on: human colonic epithelial NCM460 cells; experiment: Cathelicidin protein level in conditioned media of NCM460 cells; assay type: cell-based; conditions: 5 mM; 16 hours; serum starved
# Text: (§2) FIGS. 16A-16F show sodium butyrate inhibited colonic TNFα expression but not colonic microflora load. […] The decrease of TNFα levels in Camp^−/− mice was minimized (drop by 4 pg/μg protein), compared to wild-type mice (drop by 6 pg/μg protein). […] All experiments are representative of 3 independent experiments.
# DSS mediated colitis [4] = conditions: animal models; Vieira et al. 2011; cited from earlier work
# Raw264.7 macrophages = experiment: Camp mRNA expression in Raw264.7 macrophages; assay type: cell-based, mouse; conditions: 5 mM; 6 and 24 hours; serum starved
# DSS mediated colitis [5] = experiment: DSS mediated colitis in mice, intraperitoneal sodium butyrate; assay type: in vivo
# Text: FIGS. 15A-15D show endogenous cathelicidin induction by sodium butyrate ameliorated DSS mediated colitis in mice. FIG. 15A is an illustration of the administration of DSS and/or sodium butyrate to mCRAMP deficient (Camp^−/−) and wild-type mice (i.e., the experimental plan).
# as §2
# To investigate the role of endogenous cathelicidin induction in the amelioration of acute colitis, mCRAMP deficient (Camp^−/−) and wild-type mice were administered with DSS and/or sodium butyrate as illustrated in FIG. 15A. DSS colitis led to significant tissue damages (FIG. 15C) with body weight loss (FIG. 15B) and increased histology score (FIG. 15C).
# [6] = tested on: TNFα expression in human PBMCs; experiment: PAMP induced TNFα protein expression in human PBMCs; assay type: cell-based; conditions: 16 hours
# Description: as §1
# CCD-18Co = experiment: Cell migration of CCD-18Co in modified Boyden chamber; assay type: cell-based, human; conditions: LL-37 0-10 μM; 37° C. for 8 hours
# Description: Fibroblasts accumulated in the mucosal and submucosal locations as collagen deposition. […] Three different locations (3 separate images) per sample were counted. […] Cell migration was not affected by LL-37 (0-10 μM). Results are representative of 3 independent experiments.
# [7] = tested on: Akt and ERK phosphorylation in CCD-18Co fibroblasts; experiment: Akt and ERK phosphorylation in CCD-18Co fibroblasts (Western blot); conditions: 30 minutes, concentration dependent
# NCM460 colonocytes = experiment: Apoptosis (cleaved PARP) in NCM460 colonocytes; assay type: cell-based, human; conditions: LL-37 10 μM; proinflammatory cytokine cocktail or TNFα 10 ng/ml; 24 hours
# Description: NCM460 cells were treated with proinflammatory cytokines cocktail or TNFα (10 ng/ml) with or without LL-37 (10 μM) for 24 hours. Apoptosis signaling molecule cleaved PARP was determined by Western blot and quantification. […] All experiments are representative of 3 independent experiments.
# [8] = tested on: human primary colonic fibroblasts; experiment: TGF-β1 and IGF-1 induced COL1A2 mRNA expression in human primary colonic fibroblasts; assay type: cell-based; conditions: LL-37 5-10 μM; 24 hours; p=0.0108 and p=0.0049; concentration dependent
# Description: Camp mRNA in Camp^−/− mice was undetectable. […] Collagen (COL1A2) and total ERK protein expression was detected by Western blot analyses and quantitative image densitometry. […] TGF-β1 and IGF-1 induced COL1A2 mRNA expression in colonic fibroblasts (P=0.049) was inhibited by LL-37 (5-10 μM, p=0.001) in concentration dependent manner. […] TGF-β1 and IGF-1 induced COL1A2 mRNA expression in colonic fibroblasts (P=0.0233) was inhibited by LL-37 (5-10 μM, p=0.0108 and p=0.0049) in concentration dependent manner. All experiments are representative of 3 independent experiments.
# [9] = tested on: TNFα expression in fresh human colonic biopsies; experiment: LPS induced TNFα protein expression in fresh human colonic biopsies; assay type: cell-based; conditions: LL-37 10 μM; LPS 0.1 μg/ml; 16 hours
# Description: Human intestinal biopsies were obtained from normal patients, UC patients and CD patients after informed consent in accordance with procedures established by the Cedars-Sinai Institutional Review Board, IRBs 3358 and 23705 and UCLA Institutional Review Board IRB 11-001527. Baseline characteristics were outlined in FIG. 12B. Some fresh biopsies were frozen until homogenization. Some fresh colonic biopsies were cut into ˜3×3 mm pieces and incubated in serum free DMEM with 1% penicillin/streptomycin (Invitrogen) and exposed to LPS and/or LL-37.
# [10] = inhibitor 10 μM pretreatment 30 minutes, 72 hours, p=0.0005
compound,measurement,setting,value
COc1cccc(-c2cc(=O)c3ccccc3o2)c1N [PD98059],involvement in the LL-37 mediated inhibition of β-tubulin expression,"CCD-18Co fibroblasts; inhibitor 10 μM pretreatment 30 minutes, LL-37 10 μM, 72 hours",not involved
CN([C@@H](Cc1ccc(OS(=O)(=O)c2cccc3cnccc23)cc1)C(=O)N1CCN(c2ccccc2)CC1)S(=O)(=O)c1cccc2cnccc12 [KN62],effect on the anti-inflammatory effect of cathelicidin against LPS,"[1]; antagonist 10 μM pretreatment 30 minutes, mCRAMP 10 μM, 16 hours",did not alter the anti-inflammatory effect of cathelicidin
C=C1[C@@H](C)[C@H]2[C@H](Cc3ccccc3)NC(=O)[C@]23OC(=O)/C=C/[C@H](O)CCC[C@@H](C)C/C=C/[C@H]3[C@@H]1O [cytochalasin B],tubulin distribution (tubulin tracker),CCD-18Co fibroblasts,shrunk tubulin network in cells
same,TGF-β1 and IGF-1 induced β-tubulin expression,CCD-18Co fibroblasts; [10],affected
same,TGF-β1 and IGF-1 induced COL1A2 expression,[2]; [10],affected
N#C/C(=C\c1ccc(O)c(O)c1)C(=O)c1ccc(O)c(O)c1 [AG538],LPS induced TNFα expression under IGF-1R inhibition,[1]; 16 hours,not affected
mouse IGF-1: mouse insulin like growth factor-1,effect on the mCRAMP mediated inhibition of LPS induced TNFα secretion,"[1]; mouse IGF-1 80 pg/ml pretreatment 30 minutes, mCRAMP 10 μM, 16 hours",reversed the mCRAMP mediated inhibition
CCCC(=O)[O-].[Na+] [sodium butyrate],clinical UC disease activity,UC disease activity,reduce clinical UC disease activity
same,cathelicidin protein level in conditioned media,[3],significantly increased
same,DSS mediated colitis,DSS mediated colitis [4],reduce
same,Camp mRNA expression,Raw264.7 macrophages,significantly increased Camp mRNA expression
same,decrease of colonic TNFα levels,DSS mediated colitis [5]; Camp−/− mice,21 % reduction
same,drop of colonic TNFα levels,DSS mediated colitis [5]; Camp−/− mice,4 pg/μg protein
same,"colonic microflora load (16S expression, PCR)",DSS mediated colitis [5]; DSS exposed mice,did not cause significant change; also recorded: did not alter colonic 16S expression
same,colonic Camp mRNA expression,DSS mediated colitis [5]; DSS treated mice,significantly induced; also recorded: further augmented
same,colonic mCRAMP protein expression (Western blot),DSS mediated colitis [5]; DSS treated wild-type mice,significantly induced; also recorded: increased colonic mCRAMP protein expression
same,colonic TNFα levels,"DSS mediated colitis [5]; both wild-type and Camp−/− mice, p=0.04",significantly reduced colonic TNFα levels
same,decrease of colonic TNFα levels,DSS mediated colitis [5]; wild-type mice,40 % reduction
same,drop of colonic TNFα levels,DSS mediated colitis [5]; wild-type mice,6 pg/μg protein
same,histology score,"DSS mediated colitis [5]; wild-type mice, intraperitoneal",significant decrease of histology score
LL-37 (LLGDFFRKSKEKIGKEFKRIVQRIKDFLRNLVPRTES),LPS induced TNFα protein expression in conditioned media,"[6]; LL-37 10 μM, LPS 0.1 μg/ml",significantly reduced
same,E. coli DNA induced TNFα expression,"[6]; LL-37 1-10 μM, E. coli DNA 0.5 μg/ml",no inhibitory effect
same,tubulin distribution (tubulin tracker),CCD-18Co fibroblasts,shrunk the tubulin network
same,β-tubulin expression,"CCD-18Co fibroblasts; LL-37 10 μM, 72 hours",inhibition
same,cell migration,CCD-18Co,not affected
same,ERK phosphorylation,[7]; LL-37 up to 10 μM,significantly induced
same,Akt phosphorylation,[7],significantly induced
same,"apoptosis (cleaved PARP, Western blot)",NCM460 colonocytes,failed to reverse PARP cleavage; also recorded: did not affect apoptosis
same,TGF-β1 and IGF-1 induced COL1A2 mRNA expression,[8],inhibited
same,LPS induced TNFα protein expression in conditioned media,[9],almost abolished
same,"TGF-β1 and IGF-1 induced COL1A2 expression (Western blot, densitometry)","[2]; 10 μM LL-37, TGF-β1 50 ng/ml and IGF-1 10 ng/ml, 48 hours, p=0.0001",significantly reduces; also recorded: reduced
same,TGF-β1 and IGF-1 induced COL1A2 mRNA expression,"[2]; LL-37 5-10 μM, 24 hours, p=0.001, concentration dependent",significantly reduces; also recorded: inhibited
N#CC(=C(/N)Sc1ccccc1N)/C(C#N)=C(\N)Sc1ccccc1N [U0126],LPS induced TNFα expression,[1],inhibited; also recorded: suppressed LPS induced TNFα expression
N#C/C(=C\c1ccc2oc(=O)[nH]c2c1)C(=O)c1ccc(O)c(O)c1 [AGL2263],LPS induced TNFα expression under IGF-1R inhibition,[1]; 16 hours,not affected
pertussis toxin,effect on the inhibitory effect of cathelicidin against LPS induced TNFα expression,"[1]; pertussis toxin 500 ng/ml pretreatment overnight, mCRAMP 1-10 μM, 16 hours",reversed; also recorded: revered

# Source: patent US9772334B2, “Inflammatory bowel disease markers and therapies for colitis-associated intestinal fibrosis” (THE REGENTS OF THE UNIVERSITY OF CALIFORNIA, priority 2012, dated 2017)
